{"source": "patent US20260274922A1", "about": "“SYNTHETIC ESTROGEN RECEPTOR (ER)-DERIVED PEPTIDE” (THE TEXAS A&M UNIVERSITY SYSTEM, priority 2023, published 2026)", "key": {"[1]": {"system": "insulin signaling (IRS1, pAKT)", "assay": "Insulin sensitivity in WT primary mouse hepatocytes (IRS1, insulin-stimulated AKT phosphorylation)", "format": "cell-based", "procedure": "Primary hepatocytes isolation and cell culture. Primary hepatocytes were isolated. Male mice at age of 8-12 weeks were infused with a perfusion buffer A (calcium and magnesium-free HBSS supplemented with 10 mM HEPES, […], 1 mM glucose, and 1% penicillin-streptomycin, pH 7.4) through portal vein for 6-8 min. Then perfusion buffer A was changed to buffer B (calcium and magnesium-free HBSS supplemented with 10 mM HEPES, 1 mM CaCl2), 1 mM glucose, 1% penicillin-streptomycin, and 0.5 mg/mL collagenase II, pH 7.4). […] Liver cells were suspended and passed through a 70 μm cell strainer, followed by centrifuge at 1700 rpm for 2 min. Pellets were resuspended with Percoll at final concentration of 36% and centrifuged at 1800 rpm for 6 min. The hepatocyte pellet was washed and suspended with DMEM supplemented with 10% FBS and 1% penicillin-streptomycin in collagen-coated plates. The HepG2 cell line was purchased from Abcam and cultured with DMEM medium supplemented with 10% FBS and 1% penicillin-streptomycin in collagen-coated plates. The human embryo kidney (HEK) 293 cell line was purchased from Sigma and cultured with DMEM medium supplemented with 10% FBS and 1% penicillin-streptomycin. FBS-free DMEM medium was used to culture cells during the experiments.\n(§1) Co-immunoprecipitation and Western blotting analysis. […] Protein bands were detected using a ChemiDoc image system."}, "12-month-old female mice": {"system": "12-month-old female mice", "assay": "AF1 peptide treatment of aging female mice (12-month-old)", "format": "in vivo, mouse", "conditions": "5 mg/kg i.v. twice per week, 5 weeks", "procedure": "Postmenopause in old women is highly associated with increased risk of diabetes.\n(§2) Glucose and insulin tolerance tests. For glucose tolerance tests, mice were fasted for 16 h and intraperitoneally (i.p.) injected with dextrose (1 g/kg body weight for mice fed with regular diet; 0.5 g/kg body weight for db/db mice or mice fed with HFD). For insulin tolerance tests, mice were fasted for 6 h and i.p. injected with insulin solution (1 U/kg body weight for male mice; 0.75 U/kg body weight for female mice). Blood glucose levels were measured using glucometer at indicated time points."}, "IRS1 protein domains": {"biological_target": "T1, IRS1 protein domains (Homo sapiens, UniProt P35568)", "T1 construct": "expressed in transfected cells; host or cells: HEK293", "T1 sequence (P35568 1-300)": "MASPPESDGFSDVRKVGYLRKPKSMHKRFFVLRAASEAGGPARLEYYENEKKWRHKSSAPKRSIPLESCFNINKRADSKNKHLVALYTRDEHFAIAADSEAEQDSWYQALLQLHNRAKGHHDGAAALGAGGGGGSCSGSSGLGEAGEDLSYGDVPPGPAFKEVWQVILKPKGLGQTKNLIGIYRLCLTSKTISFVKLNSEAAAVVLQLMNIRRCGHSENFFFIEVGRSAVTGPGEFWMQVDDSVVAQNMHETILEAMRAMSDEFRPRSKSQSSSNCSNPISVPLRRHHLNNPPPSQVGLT", "assay": "AF1 peptide and IRS1 protein interaction (co-immunoprecipitation, FITC signal)", "format": "binding", "conditions": "HEK293 cells, 10 μM FITC-labelled peptide 3 h", "procedure": "AF1 peptide and IRS1 protein interaction. HEK293 cells were transfected with Flag-IRS1 or Flag-IRS1 truncated domains using lipofectamine 3000 for 30 h, followed by treatment of 10 μM control and AF1 peptides labelled with FITC fluorescence for 3 h. After 10 μM MG132 treatment for 1 h, cell protein was extracted, and Flag-labelled proteins were immunoprecipitated. The intensity of control and AF1 peptide was calculated through measuring FITC fluorescence signal with multiplex reader. The results were normalized using IgG group."}, "db/db mice": {"system": "db/db mice", "format": "in vivo, mouse", "procedure": "Obese mouse models and AF1 peptide treatment. For the high-fat diet (HFD)-induced obese mouse model, the 6-8-week-old male mice were fed with HFD (HFD; 60% kcal from fat, D12492; Research diet, New Brunswick, NJ) for 11 weeks. Then mice received 5 mg/kg body weight control or AF1 peptide through retro orbital injection (twice per week; 5 weeks). For genetic obesity mouse model, the 8-week-old db/db mice were administered with 5 mg/kg body weight control or AF1 peptide through retro orbital injection (twice per week; 5 weeks). Glucose tolerance and insulin tolerance tests were performed in the fourth and fifth week after treatment, respectively. Body composition was measured using EchoMRI™ one day before sacrificing the mice.\nas §2\nHematoxylin and eosin staining and Oil Red O staining. Livers were embedded into paraffin after being fixed by PFA, and then cut into 5 μm sections. After deparaffinization and hydration, liver sections were stained with hematoxylin for 5 min. After differentiation by 1% acid alcohol, liver sections were stained with 1% eosin for 3 min. Finally, liver sections were dehydrated and mounted with mounting media. For Oil Red O staining, liver frozen sections were prepared and fixed in 10% neutral buffered formalin for 10 min after air dry for 1 h. Liver sections were stained in Oil Red O working solution for 15 min after a quick dip in 60% isopropanol. Liver sections were then stained with hematoxylin for 3 min and covered with aqueous mounting gel. Liver sections were observed using slide scanner (Leica).\nas §1\nSerum lipid profile analysis. Serum triglyceride, AST, ALT, cholesterol, LDL, HDL, NEFA, and ALP were measured using DxC 700 AU Chemistry Analyzer (Beckman Coulter).\nSerum insulin and liver triglyceride analysis. Serum insulin and triglyceride levels were measured by using mouse insulin ELISA kit (Mercodia) and triglyceride assay kit (Abcam), respectively. […]"}, "[2]": {"conditions": "db/db mice, 5 mg/kg twice per week, 5 weeks"}, "[3]": {"conditions": "db/db mice, 5 mg/kg twice per week, 5 weeks, vs CNTR"}}, "note": "Where no end group is shown, it is not given here. The star is where a group is joined. FITC = O=C1OC2(c3ccc(O)cc3Oc3cc(O)ccc32)c2ccc(NC(=S)*)cc21", "data": [{"sequence": "YGRKKRRQRRRTKASGMALLHEPLNRPQLKIPLERDSSKPAVYNY ({FITC}-YGRKKRRQRRRTKASGMALLHEPLNRPQLKIPLERDSSKPAVYNY) [AF1 peptide]", "values": [{"measurement": "enhancement in insulin-stimulated AKT phosphorylation at S473", "setting": "[1]", "value": 210, "unit": "%"}, {"measurement": "enhancement in insulin-stimulated AKT phosphorylation at T308", "setting": "[1]", "value": 82, "unit": "%"}, {"measurement": "increase in IRS1 protein levels", "setting": "[1]; FIG. 6J", "value": 90, "unit": "%"}, {"measurement": "glucose tolerance", "setting": "12-month-old female mice", "value": "nonsignificant increase"}, {"measurement": "insulin sensitivity", "setting": "12-month-old female mice", "value": "modest improvement"}, {"measurement": "interaction with IRS1 protein domains", "setting": "IRS1 protein domains", "value": "interacted with the IRS1 1-300 domain"}, {"measurement": "liver triglycerides", "setting": "db/db mice; db/db mice", "value": "decreasing trend"}, {"measurement": "serum HDL", "setting": "db/db mice; db/db mice", "value": "significantly reduced"}, {"measurement": "serum LDL", "setting": "db/db mice; db/db mice", "value": "significantly reduced"}, {"measurement": "serum NEFA", "setting": "db/db mice; db/db mice", "value": "significantly reduced"}, {"measurement": "serum cholesterol", "setting": "db/db mice; db/db mice", "value": "significantly reduced"}, {"measurement": "serum insulin", "setting": "db/db mice; db/db mice", "value": "limited effect"}, {"measurement": "serum triglycerides", "setting": "db/db mice; db/db mice", "value": "decreasing trend"}, {"measurement": "overnight fasting blood glucose", "setting": "db/db mice; [2]", "value": "103.8 ± 3.6", "unit": "mg/dL"}, {"measurement": "random feeding blood glucose", "setting": "db/db mice; [2]", "value": "360.7 ± 25.1", "unit": "mg/dL"}, {"measurement": "decrease in overnight fasting blood glucose", "setting": "db/db mice; [3]", "value": 35, "unit": "%"}, {"measurement": "reduction in random feeding blood glucose", "setting": "db/db mice; [3]", "value": 22, "unit": "%"}, {"measurement": "liver steatosis (steatosis structure and liver fat amount)", "setting": "db/db mice; db/db mice, H&E and Oil Red O staining", "value": "significantly decreased"}, {"measurement": "blood glucose upon glucose or insulin challenge", "setting": "db/db mice; db/db mice, glucose and insulin tolerance tests", "value": "significantly decreased"}, {"measurement": "decrease in pIRS1-S302", "setting": "db/db mice; db/db mice, liver", "value": 61, "unit": "%"}, {"measurement": "increase in IRS1", "setting": "db/db mice; db/db mice, liver", "value": 114, "unit": "%"}, {"measurement": "increase in pAKT-S473", "setting": "db/db mice; db/db mice, liver", "value": 98, "unit": "%"}, {"measurement": "increase in pAKT-T308", "setting": "db/db mice; db/db mice, liver", "value": 101, "unit": "%"}, {"measurement": "pAKT-S473 and pAKT-T308", "setting": "db/db mice; db/db mice, skeletal muscle and epididymal fat tissues", "value": "significantly increased"}, {"measurement": "serum ALP", "setting": "db/db mice; mouse, in vivo", "value": "limited effect"}, {"measurement": "serum ALT", "setting": "db/db mice; mouse, in vivo", "value": "limited effect"}, {"measurement": "serum AST", "setting": "db/db mice; mouse, in vivo", "value": "significantly reduced"}]}]}
